Patent US20070154540A1 (KMSI CO., LTD., priority 2003, published 2007)

Experiments:
Type in all cases: in vivo
[1] = system: osteoarthritis-induced New Zealand white rabbits; experiment: Mankin's scoring of joints; conditions: after osteoarthritis induction, scale 0 to 14; control group 12.5
Experimental: In histological tests, degenerative changes, such as structural changes of cartilage, cell number changes in cartilage and surface staining distribution by cartilage staining with a dye, were evaluated according to a standard scoring system for the progress of osteoarthritis, Mankin's scoring (Mankin, H. J. et al., Orthopedic Clinics of North America, 2:19-30 (1971)). In the present invention, blind tests were performed by two inspectors according to the Mankin's criteria.
To prepare an osteoarthritis animal model, New Zealand white rabbits underwent anterior cruciate ligament transection (ACLT) in joints of their two hind legs. After three days, the rabbits were forced to sustain movement for four weeks in a space of 5×5 m^3 to induce substantial osteoarthritis. […]
30-mm synovial tissues were sectioned from the medial parapatella synovium of knee joints of experimental animals, fixed with 10% […] (F0507, Sigma) for over 24 hrs, and embedded in paraffin to make 4-mm paraffin blocks. […] Mankin's scoring was performed by blind tests carried out by two inspectors, and Mankin scores were determined according to the degree of degenerative progress and ranged from 0 (normal in all items) to a maximum score of 14, thus calculating a degenerative change index.

[2] = system: osteoarthritis-induced New Zealand white rabbits; experiment: H&E staining and safranin-O staining of joint cartilage; conditions: apigenin treatment group compared to control group
Excerpt: Distal femurs were collected from experimental animals and fixed with 4% formalin (F8775, Sigma) for over 24 hrs. An area of the distal femur to be analyzed was sectioned into a 5-mm thickness, decalcified with 5% nitric acid (25, 811-3, Sigma) for over 24 hrs and embedded into paraffin to provide a paraffin block. The paraffin block was sectioned, and the resulting 4-μm sections were subjected to H&E staining and staining with a cartilage-specific dye, safranin-O (S2255, Sigma), and observed under an optical microscope to evaluate the condition of cartilage.

[3] = system: osteoarthritis-induced New Zealand white rabbits; experiment: Total joint synovial fluid volume (Arsenazo III) in osteoarthritis-induced rabbits
Excerpt: (§1) To prepare an osteoarthritis animal model, New Zealand white rabbits underwent anterior cruciate ligament transection (ACLT) in joints of their two hind legs. After three days, the rabbits were forced to sustain movement for four weeks in a space of 5×5 m^3 to induce substantial osteoarthritis. […] The following Examples 3 to 10 were all performed using joints of the osteoarthritis-induced New Zealand white rabbits prepared as in this Example 2.
Typically, synovial fluid volume increases with inflammation as osteoarthritis progresses. […] The supernatants were used in this test.
Since synovial fluid volume has been reported to change according to the progress of osteoarthritis, total synovial fluid volume was measured to investigate changes in synovial fluids according to osteoarthritis induction and drug treatment. Synovial fluid volume was determined by measuring Ca^2+ concentrations in synovial fluids using an Arsenazo III complexion method (Michaylova V. et al., Anal. Chim. Acta, 53:194 (1971)). Total synovial fluid volume was calculated using a Donnan equilibrium equation. 0.01 ml of a synovial fluid was mixed with 1 ml of an Arsenazo III reagent (588-3, Sigma) and allowed to stand at room temperature for 5 min. Absorbance was measured at 600 nm using a spectrophotometer (DU650, Beckman).

[4] = system: osteoarthritis-induced New Zealand white rabbits; experiment: Proteoglycan levels in joint synovial fluids (1,9-dimethylmethylene blue assay)
Excerpt: as §1
In the joint synovial fluids prepared in Example 3, proteoglycan levels were measured using a 1,9-dimethylmethylene blue assay (Houselmann H. J. et al., Am. J. Physiol. 271:C742-752, (1996)). A synovial fluid sample of 50 μl was mixed with 250 μl of 1,9-dimethylmethylene blue (34,108-8, Aldrich), and absorbance was measured at 530 nm using a spectrophotometer (Power Wave X340, Bio-Tek).

[5] = system: osteoarthritis-induced New Zealand white rabbits; experiment: Visual observation of joint cartilage in ACLT osteoarthritis-induced rabbits
Excerpt: To prepare an osteoarthritis animal model, New Zealand white rabbits underwent anterior cruciate ligament transection (ACLT) in joints of their two hind legs. […] The following Examples 3 to 10 were all performed using joints of the osteoarthritis-induced New Zealand white rabbits prepared as in this Example 2. […] In contrast, in the PBS control group, the surface of joint cartilage was very rough due to the damage of the joint cartilage.

[6] = system: osteoarthritis-induced New Zealand white rabbits; experiment: Total protein levels in joint synovial fluids (Bradford)
Excerpt: as §1
As cartilage is destroyed with the progress of osteoarthritis, proteins contained therein are released into synovial fluids. With this respect, total protein levels were measured in synovial fluids. Using the joint synovial fluids prepared in Example 3, total protein levels in synovial fluids were measured using a Bradford method. 50 μl of a synovial fluid was mixed with 200 μl of a protein analysis reagent (500-0006, Bio-Rad) and allowed to stand at room temperature for 5 min, and absorbance was then measured at 595 nm.

[7] = non-treated left leg (−) of apigenin treatment group, four weeks after drug injection
[8] = non-treated left leg (−) of apigenin treatment group, two weeks after drug injection
[9] = apigenin-treated right leg (+), four weeks after drug injection
[10] = apigenin-treated right leg (+), four weeks after drug injection, listed as Apigenin
[11] = apigenin-treated right leg (+), two weeks after drug injection

**Q.** How did the “Mankin score (mean)” value [1] turn out when O=c1cc(-c2ccc(O)cc2)oc2cc(O)cc(O)c12 [apigenin, 4′,5,7-trihydroxyflavone] was run?
**A.** 6.6

**Q.** What about the “condition of cartilage by H&E and safranin-O staining” value [2] of the same compound?
**A.** damaged areas of cartilage were found to be restored

**Q.** What about the “Total synovial fluid volume” value ([3]; apigenin-treated right leg (+), 50 μg once per week, four weeks after drug injection) of the same compound?
**A.** about 1.16 ml

**Q.** What about the “Total synovial fluid volume” value ([3]; apigenin-treated right leg (+), 50 μg once per week, four weeks after drug injection, listed as Apigenin) of the same compound?
**A.** 1.16 ± 0.03 mL

**Q.** And the “Total synovial fluid volume” value ([3]; apigenin-treated right leg (+), 50 μg once per week, two weeks after drug injection)?
**A.** 1.13 ± 0.08 mL

**Q.** And the “Total synovial fluid volume” value [3, 7]?
**A.** about 1.58 ml

**Q.** And the “Total synovial fluid volume” value ([3]; non-treated left leg (−) of apigenin treatment group, four weeks after drug injection, listed as Apigenin)?
**A.** 1.58 ± 0.24 mL

**Q.** What about the “Total synovial fluid volume” value [3, 8] of the same compound?
**A.** 1.17 ± 0.08 mL

**Q.** What about the “Proteoglycan levels in joint synovial fluids” value (shortened to “Proteoglycan levels”) [4, 9] of the same compound?
**A.** about 12.22 μg/ml

**Q.** And the “Proteoglycan levels” value [4, 10]?
**A.** 12.22 ± 0.4 µg/mL

**Q.** What about the “Proteoglycan levels” value [4, 11] of the same compound?
**A.** 10.32 ± 0.66 µg/mL

**Q.** What about the “Proteoglycan levels” value [4, 7] of the same compound?
**A.** 34.09 ± 0.24 µg/mL

**Q.** And the “Proteoglycan levels” value [4, 8]?
**A.** 22.90 ± 0.86 µg/mL

**Q.** What about the “surface of joint cartilage (visual)” value ([5]; apigenin-treated right joint, 50 μg once per week for four weeks) of the same compound?
**A.** visually smooth

**Q.** What about the “cartilage in the left joint of the test group (visual)” value ([5]; non-treated left joint of apigenin group) of the same compound?
**A.** improved to some extent

**Q.** What about the “Total protein levels in joint synovial fluids” value (shortened to “Total protein levels”) [6, 9] of the same compound?
**A.** about 24.91 mg/ml

**Q.** What about the “Total protein levels” value [6, 10] of the same compound?
**A.** 24.91 ± 0.35 mg/mL

**Q.** What about the “Total protein levels” value [6, 11] of the same compound?
**A.** 16.64 ± 0.3 mg/mL

**Q.** And the “Total protein levels” value [6, 7]?
**A.** 36.37 ± 0. mg/ml

**Q.** And the “Total protein levels” value [6, 8]?
**A.** 20.36 ± 0.69 mg/mL
